Tests used:
[1] = tested on: patients without positive bacterial cultures localized to the prostatic fluid; experiment: Example II: double blind study using 30 patients; assay type: in vivo
Protocol: A double blind study using 30 patients without positive bacterial cultures localized to the prostatic fluid are enrolled in a double blind study. Seventeen of the patients receive a composition comprised of quercetin in amount of 500 milligrams, bromelin in an amount of 10 milligrams, and papain in an amount of 10 milligrams as the active ingredients thereof. After a randomized study is completed, an additional fifteen patients are treated in an open label study with only the […]. […] The mean symptom score improves from 21.0 to 13.1 in the group receiving quercetin, but from 20.2 to 18.8 in the placebo group. This represents an improvement of 35%. In those patients which receive only the quercetin, without the papain and bromelin, with obtainable secretions, the white blood cell count in the decreases from 16.8 to 5.3, versus a decrease from 13.1 to 8.3 in the placebo patients.

[2] = Tests of bioavailability / transmural intestinal absorption of quercetin; assay type: in vivo; details: quercetin alone
[3] = tested on: chronic interstitial cystitis syndromes; details: patients taking quercetin alone; cited from earlier work

O=c1c(O)c(-c2ccc(O)c(O)c2)oc2cc(O)cc(O)c12 [quercetin]
improvement of mean symptom score ([1]; double blind study): 35% | mean symptom score, after treatment ([1]; double blind study, end value): 13.1 | mean symptom score, before treatment ([1]; double blind study, start value): 21.0 | white blood cell count, after treatment ([1]; patients with obtainable secretions, end value): 5.3 | white blood cell count, before treatment ([1]; patients with obtainable secretions, start value): 16.8 | bioavailability [2]: does not have a high bioavailability | transmural intestinal absorption [2]: relatively low | pain [3]: controlled | severe urinary symptoms [3]: least likely to improve | symptomatic response [3]: significant
